# Measured values published in US12156533B2, “Nicotine salt formulations for aerosol devices and methods thereof” (JUUL Labs, Inc., priority 2013, dated 2024).
# Conditions: nicotine:tartaric acid 1:2 molar ratio; in PG, VG or any mixture of PG and VG at ambient conditions
# Source text: As used herein, weight percentage (w/w) refers to the weight of the individual component over the weight of the total formulation.
smiles,measurement,value
CN1CCCC1c1cccnc1.O=C(O)C(O)C(O)C(=O)O (stereo not shown) [nicotine bitartrate],concentration at which no solution is produced,≥ 0.5 % (w/w) nicotine
